Experimental data as given in patent publication EP0429372A1, “2-Azolyl nicotinate derivatives as herbicides” (RHONE-POULENC AGROCHIMIE, priority 1989, dated 1991).

Key:
[1] = test system: mauvaises herbes; type: in vivo; conditions: post-emergence, 4000 g/ha
From the text: (§1) Des quantités appropriées des composés d'essai ont été dissoutes dans de l'acétone pour obtenir des solutions équivalant à des taux d'application de 250, 1000 ou 4000 g de composé d'essai par hectare (g/ha).
Les mauvaises herbes et les plantes cultivées ont été semées directement dans du compost de mise en pot John Innes dans des pots de 75 mm de profondeur et 70 mm de côté, sauf en ce qui concerne l'espèce du genre Amaranthus qui a été repiquée au stade de jeunes plants de semis et transférée dans les pots une semaine avant plulvérisation. Puis les plantes ont été cultivées dans la serre jusqu'à ce qu'elles soient prêtres à subir une pulvérisation avec les composés d'essai. Le nombre de plantes par pot étaient les suivants :
Les composés d'essai ont été appliqués aux plantes de la manière décrite dans le paragraphe (a). Un seul pot de chaque espèce de plante cultivée et de chaque espèce de mauvaise herbe a été attribué à chaque traitement, en association avec des témoins n'ayant pas subi de pulvérisation et des témoins ayant subi une pulvérisation avec de l'acétone seule.
Après traitement, les pots ont été maintenus dans une serre et ont été arrosés une fois par aspersion au bout de 24 heures, puis par sous - irrigation contrôlée. L'évaluation visuelle des dégâts infligés aux plantes cultivées et de la destruction des mauvaises herbes a été effectué 20 à 24 jours après pulvérisation. Les résultats ont été exprimés en pourcentage de réduction de croissance ou d'endommagement des plantes cultivées ou des mauvaises herbes, comparativement aux plantes présentes dans les pots témoins.

[2] = test system: mauvaises herbes; experiment: Procedure 2 d): weed control, pre-emergence; type: in vivo; conditions: 4000 g/ha (procédé 2D), visual rating 20 to 24 days after spraying, vs control pots
From the text: as §1
Les graines ont été semées dans des pots en matière plastique de 70 mm de côté et 75 mm de profondeur, dans de la terre non stérile provenant de Boarded Barns Farm ou un type de terre similaire provenant d'une source convenable. Les quantités de graines par pot étaient les suivantes :
Les composés de la présente invention ont été appliqués à la surface du sol, contenant les semences, de la manière décrite dans le paragraphe (a). Un seul pot de chaque plante cultivée et de chaque mauvaise herbe a été attribué à chaque traitement, en association avec des témoins n'ayant pas subi de pulvérisation et des témoins ayant subi une pulvérisation avec de l'acétone seule. Après traitement, les pots ont été maintenus dans une serre et ont été arrosés par aspersion pendant 3 jours, puis par une sous- irrigation controlée. L'évaluation visuelle des dégats infligés aux plantes cultivées a été effectuée 20 à 24 jours après pulvérisation. Les résultats ont été exprimés en pourcentage de réduction de croissance ou d'endommagement des plantes cultivées ou des mauvaises herbes, comparativement aux plantes présentes dans les pots témoins.

SMILES	destruction d'une ou plusieurs des espèces de mauvaises herbes [1] [%]	réduction de la croissance d'une ou plusieurs des espèces de mauvaises herbes [2] [%]
COc1cccc2c1nc(-c1ncccc1C(=O)O)n2S(=O)(=O)N(C)C [compound 90]	≥ 90	≥ 90
Cc1ccc2c(nc(-c3ncccc3C(=O)O)n2S(=O)(=O)N(C)C)c1C [compound 91]	≥ 90	≥ 90
Cc1ccc(C(=O)O)c(-c2nc3ccccc3n2S(=O)(=O)N(C)C)n1 [compound 93]	≥ 90	≥ 90
C#CCOC(=O)c1cccnc1-c1nc2ccccc2n1S(=O)(=O)N(C)C [compound 99]	≥ 90	≥ 90
CCCCCCOC(=O)c1cccnc1-c1nc2ccccc2n1S(=O)(=O)N(C)C [compound 103]	≥ 90	≥ 90
